Measured values as given in patent US20240277718A1, “USE OF […] TO REDUCE ORGAN FIBROSIS” (SUNN[…].R.L., priority 2021, published 2024).
“Also recorded” adds a separate entry of the source.

Columns and labels:
[1] = tested on: genes encoding TGF-b, Wnt1, Wnt5, Wnt10, DKK1 and Col1A1; experiment: Quantitative Real-Time PCR of fibrosis-related genes in lungs in HOCI-induced systemic fibrosis; type: in vivo, Balb/c mice; conditions: HOCI+Istra vs HOCI group, 10 mg/kg per day intraperitoneally, week 4 to 6, FIG. 4
Procedure: Quantitative Real Time PCR Method: Reverse transcription was performed using the Super-Script IV Reverse Transcriptase synthesis kit (Thermo Fisher Scientific) and random primers as indicated in the manufacturer's protocol and 1 μl of cDNA was then used for the PCR reaction by using ready-made primers (to identify Wnt1, Wnt 5, Wnt 10, TGF-b, Collagen 1A1 and DKK1) and Thermo Fisher Scientific master mix in the QuantStudio 6 Flex instrument from Applied Biosystems.
(§1) In fact, data obtained from literature indicate that it is possible to find a significant fibrosis in the major organs such as skin, heart, large vessels and lungs, already at the fourth week of induction of the disease: for this reason, the treatment with istradefylline started at the fourth week, carrying on both induction and treatment up to the sixth week.
Animals were divided into 3 groups of 7 animals each. […]
Lungs obtained from the animals of all the experimental groups were subjected to the extraction of the total RNA which was then analyzed with the quantitative Real-Time PCR and specific primers to evaluate the expression of the genes encoding for TGF-b, Wnt1, Wnt5, Wnt10, DKK1 and Col1A1 (type I collagen) measured compared to the expression of the housekeeping gene, b-actin.

[2] = tested on: systemic fibrosis induced with hypochlorous acid (HOCI) in Balb/c mice; experiment: Histological analysis (hematoxylin/eosin, Masson's trichrome, Picrosirius red) of skin, heart and lung in HOCI-induced systemic fibrosis; type: in vivo; conditions: HOCI+Istra vs HOCI group, week 4 to 6
Procedure: Histological analysis, hematoxylin/eosin staining, Masson's trichrome and Picrosirius red: Tissues for histological and immunohistochemical analyses were fixed in 10% buffered formalin for 24 hours and then included according to standard paraffin protocol. The classic hematoxylin/eosin, Masson and Pricrosirius stainings were performed on 5-6 μm thickness tissue slices that were routinely processed using an automated histology preparer.
as §1
Animals were divided into 3 groups of 7 animals each. A group was used as control group and was the group of untreated animals (“Sham”); a group was subcutaneously treated with 400 μl of an aqueous solution of hypochlorous acid (HOCI) for 6 weeks; lastly a group was subcutaneously treated with the above-mentioned solution of HOCI at the dose of 400 μl (for 6 weeks) and with istradefylline (from week 4 up to week 6) at the dose of 10 mg/kg per day intraperitoneally and 1 hour after HOCI injection (“HOCI+Istra”). […]

[3] = tested on: vimentin and b-catenin (Wnt/b-catenin pathway); experiment: Immunofluorescence for vimentin and b-catenin in skin, heart and lung in HOCI-induced systemic fibrosis; type: in vivo, Balb/c mice; conditions: HOCI+Istra vs HOCI group; all studied tissues (skin, lung, heart); 10 mg/kg per day intraperitoneally, week 4 to 6; FIG. 3
Procedure: Immunofluorescence methods to mark vimentin and b-catenin: For immunohistochemistry the 5 μm tissue slices were incubated with 10 mmol/pH 6.0 citrate buffer in a temperature of 98° C. for 20 min. To reduce the background fluorescence, tissues were kept in a humidified chamber in 2 mmol/L glycine for 30 minutes. For the blocking of nonspecific antigenic sites, incubation was performed for 1 hour with 5% fetal bovine serum diluted in PBS, with the addition of 3% serum bovine albumin and 1% Triton X-100. Primary antibodies (p-Ser552 b-catenin, diluted 1:200; Cell Signal Technologies; Vimentin monoclonal antibody diluted 1:800; Sigma-Aldrich) were diluted in PBS and kept for 1 hour at room temperature. A species-specific antibody from Vector Laboratories was used as a negative control of the reaction. Secondary antibodies labeled with anti-rabbit IgG-fluorescein isothiocyanate (green fluorescence) or with anti-mouse IgG Alexa Fluor 555 (fred fluorescence) were kept for 1 hour at room temperature before mounting the slides and to observe the reaction under the microscope. […]

For `CCn1c(=O)c2c(nc(/C=C/c3ccc(OC)c(OC)c3)n2C)n(CC)c1=O` [istradefylline, 8-[(1E)-2-(3,4-Dimethoxyphenyl)ethenyl]-1,3-diethyl-3,7-dihydro-7-methyl-1H-purine-2,6-dione], the “expression of genes related to the fibrotic process (Wnt1, 5, 10 and TGF-b; 'all 3 targets') relative to b-actin” value [1] was “significant reduction in the expression”, the “thickening in skin and at the myocardial and pulmonary level (hematoxylin/eosin)” value ([2]; istradefylline 10 mg/kg per day intraperitoneally, FIG. 1) was “significantly reduce the thickening” and the “collagen fibers deposition (Masson trichrome and Picrosirius red)” value ([2]; skin, lung and heart tissues, 10 mg/kg per day intraperitoneally, FIG. 2, 10 mg/kg/day) was “lower deposition of collagen fibers; also recorded: significant reduction collagen fibers deposition”. For the same compound, the “positivity of b-catenin (immunofluorescence)” value [3] was “significantly reduced the positivity” and the “positivity of vimentin (immunofluorescence, fibroblast marker)” value [3] was “significantly reduced the positivity”.
